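A five-concentration, 48-hour dose response in 96-well plates underlies each endpoint, interpolated linearly between surrounding concentrations. TGI: total growth inhibition.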
Key:
Test in all cases: NCI-60 cell line screen, 48 h
HS 578T breast = tested on: HS 578T breast
SK-MEL-28 melanoma = tested on: SK-MEL-28 melanoma
IGROV1 ovarian = tested on: IGROV1 ovarian
PC-3 prostate = tested on: PC-3 prostate
M14 melanoma = tested on: M14 melanoma
SF-268 CNS = tested on: SF-268 CNS
NCI-H522 lung = tested on: NCI-H522 lung
SF-295 CNS = tested on: SF-295 CNS
HCC-2998 colon = tested on: HCC-2998 colon
A549 NSCLC = tested on: A549 NSCLC
SN12C renal = tested on: SN12C renal
MDA-N = tested on: MDA-N
OVCAR-5 ovarian = tested on: OVCAR-5 ovarian
BT-549 breast = tested on: BT-549 breast
COLO 205 colon = tested on: COLO 205 colon
HOP-62 NSCLC = tested on: HOP-62 NSCLC
SNB-19 CNS = tested on: SNB-19 CNS
HCT-15 colon = tested on: HCT-15 colon
ACHN renal = tested on: ACHN renal
EKVX NSCLC = tested on: EKVX NSCLC
OVCAR-3 ovarian = tested on: OVCAR-3 ovarian
MOLT-4 leukemia = tested on: MOLT-4 leukemia
SK-OV-3 ovarian = tested on: SK-OV-3 ovarian
LOX IMVI melanoma = tested on: LOX IMVI melanoma
HCT-116 colon = tested on: HCT-116 colon
NCI-H226 lung = tested on: NCI-H226 lung
U251 CNS = tested on: U251 CNS
DU-145 prostate = tested on: DU-145 prostate
MDA-MB-435 = tested on: MDA-MB-435
SK-MEL-2 melanoma = tested on: SK-MEL-2 melanoma
TK-10 renal = tested on: TK-10 renal
NCI-H23 lung = tested on: NCI-H23 lung
HT29 colon = tested on: HT29 colon
MDA-MB-231 breast = tested on: MDA-MB-231 breast
T-47D breast = tested on: T-47D breast
OVCAR-8 ovarian = tested on: OVCAR-8 ovarian
NCI-H460 lung = tested on: NCI-H460 lung
OVCAR-4 ovarian = tested on: OVCAR-4 ovarian
CCRF-CEM leukemia = tested on: CCRF-CEM leukemia
HL-60(TB) leukemia = tested on: HL-60(TB) leukemia
UACC-62 melanoma = tested on: UACC-62 melanoma
CAKI-1 renal = tested on: CAKI-1 renal
A498 renal = tested on: A498 renal
KM12 colon = tested on: KM12 colon
SNB-75 CNS = tested on: SNB-75 CNS
MCF7 breast = tested on: MCF7 breast
RPMI-8226 leukemia = tested on: RPMI-8226 leukemia
HOP-92 NSCLC = tested on: HOP-92 NSCLC
786-0 renal = tested on: 786-0 renal
MALME-3M melanoma = tested on: MALME-3M melanoma
UACC-257 melanoma = tested on: UACC-257 melanoma
SF-539 CNS = tested on: SF-539 CNS
SK-MEL-5 melanoma = tested on: SK-MEL-5 melanoma
SW-620 colon = tested on: SW-620 colon
SR leukemia = tested on: SR leukemia
K-562 leukemia = tested on: K-562 leukemia

SMILES: C/C(=C1/N=C(c2ccccc2)OC1=O)c1ccccc1
- TGI (HS 578T breast): > 100 µM
- TGI (SK-MEL-28 melanoma): > 100 µM
- TGI (IGROV1 ovarian): > 100 µM
- TGI (PC-3 prostate): > 100 µM
- TGI (M14 melanoma): > 100 µM
- TGI (SF-268 CNS): > 100 µM
- TGI (NCI-H522 lung): > 100 µM
- TGI (SF-295 CNS): > 100 µM
- TGI (HCC-2998 colon): > 100 µM
- TGI (A549 NSCLC): > 100 µM
- TGI (SN12C renal): > 100 µM
- TGI (MDA-N): > 100 µM
- TGI (OVCAR-5 ovarian): > 100 µM
- TGI (BT-549 breast): > 100 µM
- TGI (COLO 205 colon): > 100 µM
- TGI (HOP-62 NSCLC): > 100 µM
- TGI (SNB-19 CNS): > 100 µM
- TGI (HCT-15 colon): > 100 µM
- TGI (ACHN renal): > 100 µM
- TGI (EKVX NSCLC): > 100 µM
- TGI (OVCAR-3 ovarian): > 100 µM
- TGI (MOLT-4 leukemia): > 100 µM
- TGI (SK-OV-3 ovarian): > 100 µM
- TGI (LOX IMVI melanoma): > 100 µM
- TGI (HCT-116 colon): > 100 µM
- TGI (NCI-H226 lung): > 100 µM
- TGI (U251 CNS): > 100 µM
- TGI (DU-145 prostate): > 100 µM
- TGI (MDA-MB-435): > 100 µM
- TGI (SK-MEL-2 melanoma): > 100 µM
- TGI (TK-10 renal): > 100 µM
- TGI (NCI-H23 lung): > 100 µM
- TGI (HT29 colon): > 100 µM
- TGI (MDA-MB-231 breast): > 100 µM
- TGI (T-47D breast): > 100 µM
- TGI (OVCAR-8 ovarian): > 100 µM
- TGI (NCI-H460 lung): > 100 µM
- TGI (OVCAR-4 ovarian): > 100 µM
- TGI (CCRF-CEM leukemia): > 100 µM
- TGI (HL-60(TB) leukemia): > 100 µM
- TGI (UACC-62 melanoma): > 100 µM
- TGI (CAKI-1 renal): > 100 µM
- TGI (A498 renal): > 100 µM
- TGI (KM12 colon): > 100 µM
- TGI (SNB-75 CNS): > 100 µM
- TGI (MCF7 breast): > 100 µM
- TGI (RPMI-8226 leukemia): 68.4 µM
- TGI (HOP-92 NSCLC): > 100 µM
- TGI (786-0 renal): > 100 µM
- TGI (MALME-3M melanoma): > 100 µM
- TGI (UACC-257 melanoma): > 100 µM
- TGI (SF-539 CNS): > 100 µM
- TGI (SK-MEL-5 melanoma): > 100 µM
- TGI (SW-620 colon): > 100 µM
- TGI (SR leukemia): > 100 µM
- TGI (K-562 leukemia): > 100 µM

— PubChem BioAssay (NCI)
